In publication PMC8171083, “A nano-predator of pathological MDMX construct by clearable supramolecular gold(I)-thiol-peptide complexes achieves safe and potent anti-tumor activity” (Theranostics, 2021):
Where a SMILES comes first, the peptide text is derived from it. The star is where a group is joined. Cbz = O=C(OCc1ccccc1)*

Legend:
WERI-Rb-1 cells = experiment: Cell uptake analysis by flow cytometry (FITC-labelled); type: cell-based; details: pH 6.5; 3 mM Amiloride, 2 μM cytochalasin D
MDMX = biological target: T1, MDMX (Homo sapiens, UniProt O15151); experiment: MDMX degradation by western blot; type: cell-based; details: 200 nM Nano-MP@PSI, 12-hour preincubation of inhibitor
T1 construct: endogenous in cells; host or cells: WERI-Rb-1 (ATCC)
T1 sequence (O15151 1-490): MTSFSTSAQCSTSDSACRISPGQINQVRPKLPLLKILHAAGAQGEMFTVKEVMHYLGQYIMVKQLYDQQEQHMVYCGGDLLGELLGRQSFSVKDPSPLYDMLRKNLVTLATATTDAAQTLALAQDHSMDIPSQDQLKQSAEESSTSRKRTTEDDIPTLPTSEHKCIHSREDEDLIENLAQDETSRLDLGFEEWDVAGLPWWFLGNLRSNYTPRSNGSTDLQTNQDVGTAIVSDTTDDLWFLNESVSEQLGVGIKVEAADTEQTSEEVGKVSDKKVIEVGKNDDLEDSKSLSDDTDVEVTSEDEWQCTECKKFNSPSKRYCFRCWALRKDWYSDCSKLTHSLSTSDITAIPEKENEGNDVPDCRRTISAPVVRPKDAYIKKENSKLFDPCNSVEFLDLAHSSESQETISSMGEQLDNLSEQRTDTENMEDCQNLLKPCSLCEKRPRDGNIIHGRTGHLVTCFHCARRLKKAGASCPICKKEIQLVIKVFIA
Description: The protein fraction of cell lysates was resolved by 10%SDS/PAGE before membrane
transfer. Primary antibodies were from Santa Cruz Biotechnology (p53), Abcam (p73), Proteintech
(MDMX，p21, GAPDH); secondary antibodies conjugated with horseradish peroxidase were from […]

SMILES | Effect of preincubation on Nano-FITCMG@PSI internalization (WERI-Rb-1 cells) | Effect on MDMX degradation by Nano-MP@PSI (MDMX)
C=C1[C@@H](C)[C@H]2[C@H](Cc3ccccc3)NC(=O)[C@]23[C@H](OC(C)=O)/C=C/[C@@](C)(O)C(=O)[C@@H](C)C/C=C/[C@H]3[C@@H]1O [cytochalasin D] | suppressed | 
CCN(CC)CCCC(C)Nc1ccnc2cc(Cl)ccc12 (stereo not drawn) [chloroquine] |  | neither a chloroquine (a lysosome inhibitor) nor NH4Cl (an autophagy inhibitor) had any effect
Cl.N [NH4Cl] |  | neither a chloroquine (a lysosome inhibitor) nor NH4Cl (an autophagy inhibitor) had any effect
CC(C)C[C@@H](C=O)NC(=O)[C@H](CC(C)C)NC(=O)[C@H](CC(C)C)NC(=O)OCc1ccccc1 [MG132] (Cbz-Leu-Leu-Leu-aldehyde) |  | totally inhibits
CCOC(=O)c1ccc(N2NC(=O)/C(=C/c3ccc([N+](=O)[O-])o3)C2=O)cc1 [PYR41] |  | totally inhibits
N=C(N)NC(=O)c1nc(Cl)c(N)nc1N [Amiloride] | suppressed | 
